Values belong to the compound of their own block, whether it stands above or below them.
How the values were obtained:
Sonic hedgehog protein [1] = target: T1, Sonic hedgehog protein (Mus musculus, UniProt Q62226); experiment: Inhibition of SHh in mouse LIGHT2 cells; type: cell-based
[2] = Inhibition of hedgehog pathway in mouse C3H10T1/2 cells assessed as alkaline phosphatase enzyme activity; type: cell-based; conditions: c3h 10t1/2
[3] = Inhibition of SAG-induced hedgehog pathway in mouse SHH-LIGHT2 cells; type: cell-based
[4] = Antiproliferative activity against mouse medulloblastoma cells expressing wild type SMO; type: functional; conditions: Medulloblastoma cell
[5] = Inhibition of SHH-mediated mouse C3H10T1/2 cell differentiation to osteoblasts; conditions: c3h 10t1/2
[6] = Decrease of cell density in human CCC cells at 50 nM up to 24 hrs; type: functional; set-up: scale not given: the % may be the effect or the level left
[7] = Cytotoxicity against human SK-N-BE(2) cells after 72 hrs by fluorometric microculture cytotoxicity assay; type: functional; conditions: SKNBE2, 72 h, pooled result: one value given for 7 cell lines, strains, targets or settings
Sonic hedgehog protein [8] = target: T1, Sonic hedgehog protein; experiment: Inhibition of SHh in mouse NIH3T3 cells assessed as Gli activation; type: cell-based
Sonic hedgehog protein [9] = target: T1, Sonic hedgehog protein; experiment: Inhibition of SHh palmitoylation in mouse NIH3T3 cells; type: cell-based
Protein smoothened = Protein smoothened (Homo sapiens, UniProt Q99835, D473H); experiment: Inhibition of Smo D473H mutant (unknown origin) expressed in mouse C3H10T1/2 cells by luciferase assay; type: cell-based, C3H 10T1/2
Protein smoothened, sequence (Q99835 28-787 D473H limits assumed): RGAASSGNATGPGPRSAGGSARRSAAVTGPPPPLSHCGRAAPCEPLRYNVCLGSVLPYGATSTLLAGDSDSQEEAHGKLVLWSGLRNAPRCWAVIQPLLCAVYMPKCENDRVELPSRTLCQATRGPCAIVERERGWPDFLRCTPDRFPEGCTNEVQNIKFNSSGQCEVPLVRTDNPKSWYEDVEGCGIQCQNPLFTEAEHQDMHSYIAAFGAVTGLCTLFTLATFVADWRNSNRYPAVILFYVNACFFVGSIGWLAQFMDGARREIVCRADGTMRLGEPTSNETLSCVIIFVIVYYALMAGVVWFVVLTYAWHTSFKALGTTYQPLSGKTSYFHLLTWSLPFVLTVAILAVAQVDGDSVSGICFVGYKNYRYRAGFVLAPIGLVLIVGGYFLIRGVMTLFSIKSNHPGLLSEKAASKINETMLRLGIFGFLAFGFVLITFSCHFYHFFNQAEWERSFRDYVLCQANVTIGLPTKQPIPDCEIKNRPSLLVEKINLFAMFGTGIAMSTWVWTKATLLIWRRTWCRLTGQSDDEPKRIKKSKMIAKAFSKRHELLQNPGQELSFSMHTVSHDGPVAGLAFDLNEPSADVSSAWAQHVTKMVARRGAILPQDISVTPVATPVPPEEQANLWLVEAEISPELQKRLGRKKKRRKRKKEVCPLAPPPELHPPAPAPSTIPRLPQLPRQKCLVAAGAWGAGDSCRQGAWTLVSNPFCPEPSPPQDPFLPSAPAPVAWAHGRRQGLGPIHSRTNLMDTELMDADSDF

T1 sequence (Q62226 25-198 limits assumed): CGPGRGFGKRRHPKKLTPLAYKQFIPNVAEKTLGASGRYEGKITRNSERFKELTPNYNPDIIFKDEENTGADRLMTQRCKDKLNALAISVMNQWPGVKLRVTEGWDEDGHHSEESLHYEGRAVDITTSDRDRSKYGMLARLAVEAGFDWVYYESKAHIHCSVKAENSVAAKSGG

Compound: CCC(C)n1ncn(-c2ccc(N3CCN(c4ccc(OCC5COC(Cn6cncn6)(c6ccc(Cl)cc6Cl)O5)cc4)CC3)cc2)c1=O (centres undefined) [ITRACONAZOLE]
IC50 [4]: 55 nM

Compound: CC1=C2C[C@H]3[C@@H](CCC4=CC(=O)CC[C@@]43C)[C@@H]2CC[C@@]2(C1)O[C@@H]1C[C@H](C)CN[C@H]1[C@H]2C
EC50 [5]: 200 nM

Compound: C=C1CC[C@H](O)C/C1=C/C=C1\CCC[C@]2(C)[C@@H]([C@H](C)CCCC(C)C)CC[C@@H]12 [CHOLECALCIFEROL]
Activity [6]: <=90%

Compound: CN(C)c1ccccc1CN1CCCN(Cc2ccccc2N(C)C)C1c1ccncc1
GI50 [7]: 5820 nM

Compound: OCCNc1nc(N2CCN(c3ccccc3)CC2)nc2ccccc12
IC50 [3]: < 10000 nM

The next lines start with the values.

IC50 (Sonic hedgehog protein [1]): 25 nM
Compound: O=C(NN1CCN(c2nc(-c3ccc4ccccc4n3)no2)CC1)C1CCC(F)(F)CC1

IC50 [2]: 23 nM
Compound: Clc1ccc(N2CCC(N3CCCC3)CC2)cc1-c1nc2ccccc2[nH]1

IC50 [3]: < 10000 nM
Compound: COc1ccc(OC)c2c1cc1n2CC(C)(C(=O)NC2CCCCCCC2)N(CCN(C)C)C1=O (centres undefined)

IC50 [3]: < 10000 nM
Compound: N#C/C(C(=O)c1ccc(Cl)cc1Cl)=C1\NC(=O)c2ccccc2N1

IC50 (Sonic hedgehog protein [1]): 5 nM
Compound: O=C(NN1CCN(c2nc(-c3cnc4ccccc4n3)no2)CC1)C1CCCCC1

IC50 [3]: < 10000 nM
Compound: COCCOC(=O)C1=C(C)NC2=C(C(=O)CC(c3ccccc3OC)C2)C1c1cccc(O)c1 (centres undefined)

IC50 (Sonic hedgehog protein [8]): 10000 nM
IC50 (Sonic hedgehog protein [9]): 10000 nM
Compound: CCC(C)CNCC(=O)N1CCc2sccc2C1COc1cccc(C)c1 (centres undefined)

IC50 (Protein smoothened): < 100 nM
Compound: Cc1c(Cc2ccccc2)nnc(N2CCN(c3cnc(C(C)(C)O)cn3)[C@H](C)C2)c1C [LEQ506]
